By pIC50 is commonly meant the IC50 on a negative log10 scale, so that one unit is a factor of ten.

pIC50: −log10 of the molar value.

In assay [1] the test system is LNCaP C4-2B. The assay can be described thus: Cytotoxicity against human LNCaP C4-2B cells incubated for 48 hrs by MTT assay. Format: functional, cell-based. (Tetrazolium dyes change colour on reduction, which living cells bring about.)
Assay [2] relates to HCT-15. As to the kind of experiment: Cytotoxicity against human HCT-15 cells incubated for 48 hrs by MTT assay. It is filed as functional, cell-based. The note with it: HCT-15, 48 h.
Assay [3] has as its system MDA-MB-231. The assay can be described thus: Cytotoxicity against human MDA-MB-231 cells incubated for 48 hrs by MTT assay. Format: functional, cell-based. The note with it: MDA-MB-231, 48 h.
For assay [4], the system named is MDA-MB-231. As to the kind of experiment: Cytotoxicity against human MDA-MB-231 cells incubated for 72 hrs by MTT assay. It is filed as functional, cell-based. The note with it: MDA-MB-231, 72 h.
The subject of assay [5] is MCF7. The assay can be described thus: Cytotoxicity against human MCF-7 cells incubated for 72 hrs by MTT assay. Format: functional, cell-based. The following applies: MCF7, 72 h.
The test system of assay [6] is PANC-1. As to the kind of experiment: Cytotoxicity against human Panc-1 cells incubated for 72 hrs by sulphorhodamine B assay. It is filed as functional, cell-based. The note with it: PANC-1, 72 h. On the technique in general: Sulforhodamine B stains cellular protein and so reports cell mass.
Assay [7] deals with SW1990. The assay can be described thus: Antiproliferative activity against human SW1990 incubated for 72 hrs by sulphorhodamine B assay. Format: functional, cell-based. The following applies: SW1990, 72 h.
In assay [8] the test system is SK-MEL-2. The assay can be described thus: Cytotoxicity against human SK-MEL-2 cells by SRB staining assay. Format: functional, cell-based.
For assay [9], the system named is P388. The assay can be described thus: Antiproliferative activity against mouse P388 cells. It is filed as functional, cell-based.
The test system of assay [10] is HCT-15. As to the kind of experiment: Cytotoxicity against human HCT-15 cells by SRB staining assay. Format: functional, cell-based.
Assay [11] deals with SK-OV-3. The assay can be described thus: Cytotoxicity against human SK-OV-3 cells by SRB staining assay. Format: functional, cell-based.
Assay [12] concerns XF498. As to the kind of experiment: Cytotoxicity against human XF498 cells by SRB staining assay. It is filed as functional, cell-based.
In assay [13] the test system is A549. The assay can be described thus: Cytotoxicity against human A549 cells by SRB staining assay. It is filed as functional, cell-based.
Assay [14] has as its system IMR-32. The assay can be described thus: Cytotoxicity against human IMR-32 cells incubated for 48 hrs by SRB assay. It is filed as functional, cell-based. The following applies: IMR-32, 48 h.
Assay [15] deals with HeLa. As to the kind of experiment: Cytotoxicity against human HeLa cells incubated for 48 hrs by SRB assay. Format: functional, cell-based.
Assay [16] has as its system HepG2. As to the kind of experiment: Cytotoxicity against human HepG2 cells incubated for 48 hrs by SRB assay. Format: functional, cell-based. The following applies: HepG2, 48 h.
The subject of assay [17] is P388. As to the kind of experiment: Cytotoxicity against mouse P388 cells incubated for 48 hrs by MTT assay. Format: functional, cell-based. The note with it: P388, 48 h.
In assay [18] the test system is MDA-MB-435. As to the kind of experiment: Antiproliferative activity against human MDA-MB-435 cells incubated for 48 hrs by [3H]-thymidine incorporation assay. Format: functional, cell-based. (Dividing cells build labelled thymidine or BrdU into new DNA.)
The nature of assay [19]: Antiproliferative activity against human Panc-28 cells incubated for 72 hrs by MTT assay. The note with it: MDA-Panc-28, 72 h. It is filed as functional, cell-based.
Assay [20] deals with MCF7. The assay can be described thus: Antiproliferative activity against human MCF7 cells incubated for 48 hrs by [3H]-thymidine incorporation assay. Format: functional, cell-based.
A short description of assay [21]: Inhibition of PAFR in New Zealand rabbit platelets assessed as reduction in PAF-induced platelet aggregation measured within 5 mins by aggregometry analysis. Format: tissue-based. The note with it: Oryctolagus cuniculus.
Assay [22] in a line: Inhibition of [3H]PAF-acether binding to PAFR in rabbit platelet plasma membranes incubated for 1 hr. Format: cell membranes, Oryctolagus cuniculus, Cell membrane.
Assay [23] has as its system HepG2. As to the kind of experiment: Cytotoxicity against human HepG2 cells by MTT assay. It is filed as functional, cell-based.
Assay [24] relates to HCT-116. The assay can be described thus: Cytotoxicity against human HCT-116 cells by MTT assay. It is filed as functional, cell-based.
Assay [25] deals with BGC-823. The assay can be described thus: Cytotoxicity against human BGC-823 cells by MTT assay. Format: functional, cell-based.
In assay [26] the test system is HepG2. The assay can be described thus: Cytotoxicity against human HepG2 cells incubated for 48 hrs by alamarblue reagent based assay. Format: functional, cell-based. The following applies: HepG2, 48 h.
For assay [27], the system named is MCF7. As to the kind of experiment: Cytotoxicity against human MCF7 cells incubated for 48 hrs by alamarblue reagent based assay. Format: functional, cell-based. The note with it: MCF7, 48 h.
For assay [28], the system named is L1210. As to the kind of experiment: Cytotoxicity against mouse L1210 cells. Format: functional, cell-based.

For `CC1=C2C(=C[C@H]3[C@]4(C)CCCC(C)(C)[C@H]4CC[C@]34O[C@H]24)OC1=O`, the figures for the negative logarithm of the IC50 (pIC50) in assay [1], in [2] and in assay [3] were 5.00, less than 4.30 and less than 4.30, respectively.

Regarding `COC(=O)[C@@]12OC[C@]34[C@H]([C@@H](O)[C@@H]1O)[C@@]1(C)C=C(O[C@@H]5O[C@H](CO)[C@@H](O)[C@H](O)[C@H]5O)C(=O)[C@@H](C)[C@@H]1C[C@H]3OC(=O)[C@H](OC(=O)CC(C)C)[C@@H]24`, the negative-log IC50 (pIC50) in [4] was less than 4.30; in [5] it was less than 4.30; in assay [6], less than 4.00; in [7], less than 4.00.

Regarding `CC1(C)CCC[C@]2(C)[C@@H]1CC[C@@]13O[C@@H]1C1=C(CO)C(=O)OC1=C[C@@H]23`, the pIC50 is 5.66 in [1], 4.89 in assay [2] and 5.06 in assay [3].

Consider `CC(=O)O[C@@H]1C[C@H](O)[C@@]23COC(O)[C@]1(C)[C@@H]2C[C@@H](O)[C@]1(C)[C@@H]3C(=O)C(O)[C@@]2(C)[C@H](c3ccoc3)C[C@H]3O[C@@]312` (stereo partly drawn), for which the pIC50 in assay [8] is 7.72; in assay [9], 8.42; in assay [10], 6.82; in assay [11], 6.33; in assay [12] it was 7.42; in assay [13] it was 7.12.

As to `C=C1[C@@H]2CC[C@@]3(C)[C@H](c4ccoc4)OC(=O)C[C@]13O[C@H]1C[C@H](OC(C)=O)C(C)(C)[C@H](CC(=O)OC)[C@]12C`, the pIC50 in assay [14] was 7.66; in assay [15] it was 4.21; in assay [16], less than 4.00.

`C[C@H](CO)[C@H]1OC(=O)C=C2[C@@]3(C)[C@H](O)CC[C@]4(C)C(=O)O[C@H]([C@H]5O[C@@]251)[C@H]34` showed a pIC50 in assay [17] of 5.68.

Take `CC1(C)O[C@H]2CC(=O)OC[C@]23[C@H]2CC[C@@](C)([C@@H](O[C@H]4O[C@H](CO)[C@@H](O)[C@H](O)[C@H]4O)c4ccoc4)[C@@]4(O[C@@H]4C(=O)O)[C@]2(C)C(=O)C[C@@H]13`: the results for the pIC50 in [18], in assay [19] and in [20] were 3.92, 4.70 and 4.26, respectively.

Turning to `CC1=CC(=O)[C@@H](O)[C@]2(C)[C@H]3[C@@H](O)[C@H](O)[C@@]4(C)OC[C@@]35[C@@H](C[C@@H]12)OC(=O)[C@H](O)[C@]54O`, the pIC50 was 4.62 in assay [4], 4.72 in [5], 5.89 in assay [6] and 5.68 in [7].

As to `C[C@@H]1C(=O)O[C@H]2C[C@@]34[C@H]5C[C@@H](C(C)(C)C)[C@]36[C@@H](OC(=O)[C@@H]6O)O[C@@]4(C(=O)O5)[C@]21O` [GINKGOLIDE A], the pIC50 in assay [21] is 6.24; in assay [22], 6.03.

In the case of `CC(C)[C@]1(O)[C@H](O)[C@@H]2O[C@]23[C@]2(O[C@H]2C[C@H]2C4=C(CC[C@@]23C)C(=O)OC4)[C@@H]1O`, the pIC50 in assay [23], in assay [24] and in assay [25] was less than 5.00 throughout.

Consider `C=C1C(=O)O[C@@H]2C3O[C@]3(C)CC/C=C(\C)CC[C@@H]12` (stereo partly drawn), for which the pIC50 in [26] was 4.77; in assay [27], 4.96.

Take `C=C1[C@@H](O)[C@@]2(O)OC[C@@]34[C@H]1[C@@H](OC(=O)/C=C/CCCCCCCC)C(=O)O[C@@H]3C[C@H]1C(C)=CC(=O)[C@@H](O)[C@]1(C)[C@@H]24`: the pIC50 in [28] is 7.05.

As for `CC(C)(O)[C@]12O[C@H]1[C@@H]1O[C@]13[C@]1(O[C@H]1C[C@H]1C4=C(CC[C@@]13C)C(=O)OC4)[C@@H]2O`, the pIC50 is 6.11 in assay [23], 6.41 in assay [24] and 6.70 in assay [25].

On to `CC(=O)O[C@@H]1C[C@H](O)[C@@]23COC(O)[C@]1(C)[C@@H]2C[C@@H](O)[C@@]1(C)[C@@H]2C(=O)C[C@@H](c4ccoc4)[C@]2(C)[C@@H](O)C(=O)[C@@H]13` (stereo partly drawn), for which the pIC50 was 6.15 in assay [8]; 5.52 in [10]; 4.59 in [11]; 5.42 in assay [12]; 5.77 in assay [13].

The values above are taken from ChEMBL document CHEMBL4706632, “Development of Potential Antitumor Agents from the Scaffolds of Plant-Derived Terpenoid Lactones” (J Med Chem, 2020).
